{"source": "the NIST ThermoML archive (doi:10.1016/j.jct.2011.05.017)", "assay": "xn = mol fraction of the nth substance listed", "conditions": "298.15 K, 101 kPa, Liquid, Vibrating tube method", "note": "± gives the expanded uncertainty stated by the source.", "data": [{"compound": "CCC(C)Cl", "note": "(stereo not drawn) [2-chlorobutane] + CC(C)CO", "values": [{"measurement": "mass density", "setting": "x1 = 0.0579", "result": "801.82 ± 0.24", "unit": "kg/m3"}, {"measurement": "mass density", "setting": "x1 = 0.1152", "result": "805.77 ± 0.24", "unit": "kg/m3"}, {"measurement": "mass density", "setting": "x1 = 0.2274", "result": "813.51 ± 0.24", "unit": "kg/m3"}, {"measurement": "mass density", "setting": "x1 = 0.3166", "result": "819.67 ± 0.24", "unit": "kg/m3"}, {"measurement": "mass density", "setting": "x1 = 0.4235", "result": "827.01 ± 0.24", "unit": "kg/m3"}, {"measurement": "mass density", "setting": "x1 = 0.4896", "result": "831.53 ± 0.24", "unit": "kg/m3"}, {"measurement": "mass density", "setting": "x1 = 0.5564", "result": "836.12 ± 0.24", "unit": "kg/m3"}, {"measurement": "mass density", "setting": "x1 = 0.6097", "result": "839.79 ± 0.24", "unit": "kg/m3"}, {"measurement": "mass density", "setting": "x1 = 0.6872", "result": "845.08 ± 0.24", "unit": "kg/m3"}, {"measurement": "mass density", "setting": "x1 = 0.7523", "result": "849.59 ± 0.24", "unit": "kg/m3"}, {"measurement": "mass density", "setting": "x1 = 0.809", "result": "853.54 ± 0.24", "unit": "kg/m3"}, {"measurement": "mass density", "setting": "x1 = 0.8487", "result": "856.33 ± 0.24", "unit": "kg/m3"}, {"measurement": "mass density", "setting": "x1 = 0.8975", "result": "859.77 ± 0.24", "unit": "kg/m3"}, {"measurement": "mass density", "setting": "x1 = 0.9293", "result": "862.05 ± 0.24", "unit": "kg/m3"}, {"measurement": "mass density", "setting": "x1 = 0.9638", "result": "864.55 ± 0.24", "unit": "kg/m3"}, {"measurement": "mass density", "setting": "x1 = 1", "result": "867.21 ± 0.24", "unit": "kg/m3"}]}, {"compound": "CCC(C)Cl", "note": "(stereo not drawn) [2-chlorobutane] + CCCCOC(C)=O", "values": [{"measurement": "mass density", "setting": "x1 = 0.0787", "result": "875.55 ± 0.24", "unit": "kg/m3"}, {"measurement": "mass density", "setting": "x1 = 0.1618", "result": "874.83 ± 0.24", "unit": "kg/m3"}, {"measurement": "mass density", "setting": "x1 = 0.233", "result": "874.2 ± 0.24", "unit": "kg/m3"}, {"measurement": "mass density", "setting": "x1 = 0.325", "result": "873.36 ± 0.24", "unit": "kg/m3"}, {"measurement": "mass density", "setting": "x1 = 0.3861", "result": "872.8 ± 0.24", "unit": "kg/m3"}, {"measurement": "mass density", "setting": "x1 = 0.4512", "result": "872.2 ± 0.24", "unit": "kg/m3"}, {"measurement": "mass density", "setting": "x1 = 0.506", "result": "871.7 ± 0.24", "unit": "kg/m3"}, {"measurement": "mass density", "setting": "x1 = 0.5902", "result": "870.94 ± 0.24", "unit": "kg/m3"}, {"measurement": "mass density", "setting": "x1 = 0.6656", "result": "870.27 ± 0.24", "unit": "kg/m3"}, {"measurement": "mass density", "setting": "x1 = 0.7352", "result": "869.65 ± 0.24", "unit": "kg/m3"}, {"measurement": "mass density", "setting": "x1 = 0.7862", "result": "869.19 ± 0.24", "unit": "kg/m3"}, {"measurement": "mass density", "setting": "x1 = 0.8516", "result": "868.6 ± 0.24", "unit": "kg/m3"}, {"measurement": "mass density", "setting": "x1 = 0.8961", "result": "868.19 ± 0.24", "unit": "kg/m3"}, {"measurement": "mass density", "setting": "x1 = 0.9458", "result": "867.73 ± 0.24", "unit": "kg/m3"}, {"measurement": "mass density", "setting": "x1 = 1", "result": "867.21 ± 0.24", "unit": "kg/m3"}]}, {"compound": "CC(C)CO", "note": "[2-methyl-1-propanol] + CCC(C)Cl", "values": [{"measurement": "mass density", "setting": "x2 = 0", "result": "797.82 ± 0.24", "unit": "kg/m3"}]}, {"compound": "CC(C)CO", "note": "[2-methyl-1-propanol] + CCCCOC(C)=O", "values": [{"measurement": "mass density", "setting": "x2 = 0", "result": "797.82 ± 0.24", "unit": "kg/m3"}]}, {"compound": "CCCCOC(C)=O", "note": "[butyl ethanoate] + CC(C)CO", "values": [{"measurement": "mass density", "setting": "x1 = 0.0589", "result": "802.41 ± 0.24", "unit": "kg/m3"}, {"measurement": "mass density", "setting": "x1 = 0.1065", "result": "806.12 ± 0.24", "unit": "kg/m3"}, {"measurement": "mass density", "setting": "x1 = 0.1907", "result": "812.7 ± 0.24", "unit": "kg/m3"}, {"measurement": "mass density", "setting": "x1 = 0.272", "result": "819.03 ± 0.24", "unit": "kg/m3"}, {"measurement": "mass density", "setting": "x1 = 0.3894", "result": "828.2 ± 0.24", "unit": "kg/m3"}, {"measurement": "mass density", "setting": "x1 = 0.4427", "result": "832.34 ± 0.24", "unit": "kg/m3"}, {"measurement": "mass density", "setting": "x1 = 0.5277", "result": "838.96 ± 0.24", "unit": "kg/m3"}, {"measurement": "mass density", "setting": "x1 = 0.607", "result": "845.14 ± 0.24", "unit": "kg/m3"}, {"measurement": "mass density", "setting": "x1 = 0.6829", "result": "851.07 ± 0.24", "unit": "kg/m3"}, {"measurement": "mass density", "setting": "x1 = 0.7405", "result": "855.58 ± 0.24", "unit": "kg/m3"}, {"measurement": "mass density", "setting": "x1 = 0.8166", "result": "861.57 ± 0.24", "unit": "kg/m3"}, {"measurement": "mass density", "setting": "x1 = 0.87", "result": "865.79 ± 0.24", "unit": "kg/m3"}, {"measurement": "mass density", "setting": "x1 = 0.9312", "result": "870.67 ± 0.24", "unit": "kg/m3"}, {"measurement": "mass density", "setting": "x1 = 1", "result": "876.2 ± 0.23", "unit": "kg/m3"}]}, {"compound": "CCCCOC(C)=O", "note": "[butyl ethanoate] + CCC(C)Cl", "values": [{"measurement": "mass density", "setting": "x2 = 0", "result": "876.2 ± 0.23", "unit": "kg/m3"}]}]}
